Patent publication US10239835B2, “N-alkylaryl-5-oxyaryl-octahydro-cyclopenta[c]pyrrole negative allosteric modulators of NR2B” (Luc Therapeutics, Inc., priority 2014, dated 2019)

Tests used:
[1] = target: HEK293 cells expressing NR1/NR2B (Homo sapiens (Human), UniProt Q13224); assay: NR2B NAM Assay (FDSS Ca2+ influx cell assay); type: cell-based; details: Ca2+ influx inhibition relative to MK801; 3 μM glutamate, 3 μM glycine, 1 mM Ca2+; read-out: NR2B NAM IC50
Description: (§1) Cell Culture and plating: HEK293 cells expressing NR1/NR2B (Chantest, Cleveland, Ohio) were grown to 70-80% confluency as an adherent monolayer in standard tissue culture flasks at 37° C., 5% CO2 per supplier's instructions. NR2B expression was induced by incubation with 0.3-0.4 μg/ml tetracycline in the presence of 4 mM ARL-15896 for 18-24 hours under the same growth conditions, then transferred to 30° C. for another 3-5 hours.
(§2) After induction, cell culture medium was removed and cells were rinsed once with Ca^2+ and Mg^2+-free Dulbecco's phosphate buffered saline. Cells were then removed from the flask using TrypLE™ Express (Life Technologies) according to the manufacturer's instructions and collected to 50 ml centrifuge tubes. Following two washes in Ca^2+/Mg^2+-free HBSS with 20 mM HEPES (HHnoCa), cells were counted and viability assessed using trypan blue. To load cells with Ca^2+-sensitive dye, they were resuspended in fluo-8 plus Component B (AAT Bioquest Products) diluted in HHnoCa and incubated 15 minutes at 37° C., followed by 30 minutes at room temp (in dark). Cells were then washed and resuspended in HHnoCa to remove extracellular dye and plated in 384-well plates (Falcon, uncoated) at 20,000-30,000 cells/well in a final volume of 25 μl/well.
(§3) FDSS Assay: To each well of the plate, 10 μL test compound, control (MK801) or HHnoCa buffer was added at different concentrations to yield final concentrations of 0.001, 0.003, 0.010, 0.030, 0.100, 0.300, 1.000, 3.000, 10.000, or 30.000 uM final concentration of DMSO of 0.1%. Following 10 minutes pre-incubation in the dark, plates are loaded onto the Hamamatsu FDSS 6000. After collecting baseline fluorescence images, 3 μM glutamate, 3 μM glycine, and 1 mM Ca^2+ in HHnoCa buffer is added to each well, and Ca^2+ is recorded for 3 minutes. Data were processed by computing ratio of fluorescence at the end of data collection to baseline fluorescence to assess degree of Ca^2+ influx inhibition relative to that observed in MK801.
(§4) Table 8 below provides activity of each compound according to the legend that “++++” indicates inhibition at a concentration<100 nM; “+++” indicates inhibition at a concentration between 100 nM and 1 μM of the disclosed compound; “++” indicates inhibition at a concentration of from 1 μM to 10 μM; and “+” indicates inhibition at a concentration>10 μM.

[2] = target: HEK293 cells expressing NR1/NR2B (Homo sapiens (Human), UniProt Q05586+Q13224); assay: NR2B NAM Assay (FDSS Ca2+ influx cell assay); type: cell-based; details: NR2B NAM assay, class of inhibitory concentration; read-out: Activity Category
Sequence of HEK293 cells expressing NR1/NR2B (Homo sapiens (Human), UniProt Q05586+Q13224) (Q13224 27-1484, other chains not shown): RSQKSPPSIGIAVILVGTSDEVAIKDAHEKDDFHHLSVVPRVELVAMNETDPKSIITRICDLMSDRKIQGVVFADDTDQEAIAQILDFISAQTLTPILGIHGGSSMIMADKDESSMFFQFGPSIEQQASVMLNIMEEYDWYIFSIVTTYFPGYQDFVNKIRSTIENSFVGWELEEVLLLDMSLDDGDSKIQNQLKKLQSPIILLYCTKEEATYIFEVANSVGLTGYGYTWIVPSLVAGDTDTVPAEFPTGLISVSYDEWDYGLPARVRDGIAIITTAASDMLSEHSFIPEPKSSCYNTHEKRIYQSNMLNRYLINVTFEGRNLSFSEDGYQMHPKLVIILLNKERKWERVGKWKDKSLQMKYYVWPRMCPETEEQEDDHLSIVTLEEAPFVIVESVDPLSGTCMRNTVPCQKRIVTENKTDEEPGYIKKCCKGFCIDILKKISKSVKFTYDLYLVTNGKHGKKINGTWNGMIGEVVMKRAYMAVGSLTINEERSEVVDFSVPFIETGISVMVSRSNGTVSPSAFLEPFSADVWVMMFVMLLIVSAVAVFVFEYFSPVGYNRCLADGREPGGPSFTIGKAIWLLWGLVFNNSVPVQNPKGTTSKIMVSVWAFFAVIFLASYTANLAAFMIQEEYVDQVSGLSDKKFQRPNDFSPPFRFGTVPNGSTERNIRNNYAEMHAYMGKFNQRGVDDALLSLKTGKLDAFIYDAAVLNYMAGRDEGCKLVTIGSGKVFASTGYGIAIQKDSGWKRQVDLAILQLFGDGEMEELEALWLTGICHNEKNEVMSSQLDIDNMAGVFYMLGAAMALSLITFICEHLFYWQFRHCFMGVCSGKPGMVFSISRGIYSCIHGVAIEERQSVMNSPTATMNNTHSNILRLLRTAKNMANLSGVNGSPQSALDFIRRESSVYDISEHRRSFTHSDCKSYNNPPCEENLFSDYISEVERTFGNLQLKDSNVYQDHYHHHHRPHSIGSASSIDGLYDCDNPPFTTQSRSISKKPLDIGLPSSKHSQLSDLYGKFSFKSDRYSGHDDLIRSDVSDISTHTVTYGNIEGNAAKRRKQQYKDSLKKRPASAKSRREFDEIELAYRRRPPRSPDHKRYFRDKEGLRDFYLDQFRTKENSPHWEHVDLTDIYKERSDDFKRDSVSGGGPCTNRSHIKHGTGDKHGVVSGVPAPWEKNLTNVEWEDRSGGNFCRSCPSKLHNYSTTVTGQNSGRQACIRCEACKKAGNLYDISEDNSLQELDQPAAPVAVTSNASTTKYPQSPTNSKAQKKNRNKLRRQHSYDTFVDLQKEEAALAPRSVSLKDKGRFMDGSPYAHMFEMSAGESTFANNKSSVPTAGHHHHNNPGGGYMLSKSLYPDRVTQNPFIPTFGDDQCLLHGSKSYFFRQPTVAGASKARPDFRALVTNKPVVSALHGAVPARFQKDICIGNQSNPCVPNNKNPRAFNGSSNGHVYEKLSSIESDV
Description: as §1, §2, §3, §4

Sequence of HEK293 cells expressing NR1/NR2B (Homo sapiens (Human), UniProt Q13224) (Q13224 27-1484, other chains not shown): as above

Row | SMILES | IC50 [1] | IC50 [2]
1 | COc1cccc(F)c1O[C@H]1C[C@@H]2CN(CC(O)c3ccc(O)cc3)C[C@@H]2C1 (stereo partly shown) | 249 nM | 100 to 1000 nM
2 | COC(CN1C[C@H]2C[C@H](Oc3ccc(F)cc3)C[C@H]2C1)c1ccc(OCc2ccccc2)cc1 (stereo partly shown) | 10000 nM | > 10000 nM
3 | COc1ccc(O[C@@H]2C[C@@H]3CN(CC(O)c4ccc(O)cn4)C[C@@H]3C2)cc1 (stereo partly shown) | 440 nM | 100 to 1000 nM
4 | O=C(CN1C[C@H]2C[C@H](S(=O)(=O)c3ccccc3)C[C@H]2C1)c1ccc(O)c(F)c1 | 10000 nM | > 10000 nM
5 | O=S(=O)(c1ccccc1)[C@H]1C[C@@H]2CN(CC(O)c3ccc(O)c(F)c3)C[C@@H]2C1 (stereo partly shown) | 10000 nM | > 10000 nM
6 | O=C(CN1C[C@H]2C[C@H](Oc3cccnc3F)C[C@H]2C1)c1ccc(O)c(F)c1 | 10000 nM | > 10000 nM
7 | O=C(CN1C[C@H]2C[C@H](Oc3ccc(F)cc3)C[C@H]2C1)c1ccc(O)c(F)n1 | 10000 nM | > 10000 nM
8 | O=C(CN1C[C@H]2C[C@H](Oc3ccc(F)nc3)C[C@H]2C1)c1ccc(O)cn1 | 10000 nM | > 10000 nM
9 | Cc1ncccc1O[C@H]1C[C@@H]2CN(CC(O)c3ccc(O)cc3)C[C@@H]2C1 (stereo partly shown) | 188 nM | 100 to 1000 nM
10 | COc1ccc(O[C@H]2C[C@@H]3CN(CC(=O)c4ccc(O)cn4)C[C@@H]3C2)cc1 | 10000 nM | > 10000 nM
11 | O=C(CN1C[C@H]2C[C@H](Oc3ccccc3Cl)C[C@H]2C1)c1ccc(O)cn1 | 1660 nM | 1000 to 10000 nM
12 | Oc1ccc(C(O)CN2C[C@H]3C[C@H](Oc4cnccn4)C[C@H]3C2)cc1 (stereo partly shown) | 243 nM | 100 to 1000 nM
13 | O=C(CN1C[C@H]2C[C@H](Oc3cccnc3F)C[C@H]2C1)c1ccc(O)cn1 | 10000 nM | > 10000 nM
14 | COc1ccc(F)c(O[C@H]2C[C@@H]3CN(CC(=O)c4ccc(O)cn4)C[C@@H]3C2)c1 | 10000 nM | > 10000 nM
15 | COc1ccc(O[C@H]2C[C@@H]3CN(CC(O)c4ccc(O)c(F)n4)C[C@@H]3C2)cc1 (stereo partly shown) | 3290 nM | 1000 to 10000 nM
16 | COc1ccc(O[C@H]2C[C@@H]3CN(CC(O)c4ccc(O)c(OC)n4)C[C@@H]3C2)cc1 (stereo partly shown) | 1330 nM | 1000 to 10000 nM
17 | O=C(CN1C[C@H]2C[C@H](Oc3cccc4cnccc34)C[C@H]2C1)c1ccc(O)cc1 | 409 nM | 100 to 1000 nM
18 | Cc1ccc(O[C@H]2C[C@@H]3CN(CC(=O)c4ccc(O)cc4)C[C@@H]3C2)c(F)c1 | 210 nM | 100 to 1000 nM
19 | COc1cccc(O[C@H]2C[C@@H]3CN(CC(=O)c4ccc(O)cn4)C[C@@H]3C2)c1 | 10000 nM | > 10000 nM
20 | O=C(CN1C[C@H]2C[C@H](Oc3ccccc3F)C[C@H]2C1)c1ccc(O)cn1 | 219 nM | 100 to 1000 nM
21 | Oc1ccc(C(O)CN2C[C@H]3C[C@H](Oc4ccncc4)C[C@H]3C2)cc1 (stereo partly shown) | 4470 nM | 1000 to 10000 nM
22 | O=C(CN1C[C@H]2C[C@H](Oc3ccc(F)c(F)c3)C[C@H]2C1)c1ccc(O)cn1 | 1260 nM | 1000 to 10000 nM
23 | Oc1ccc(C(O)CN2C[C@H]3C[C@@H](Oc4cccnc4)C[C@H]3C2)cc1 (stereo partly shown) | 8000 nM | 1000 to 10000 nM
24 | Cc1cccc(O[C@H]2C[C@@H]3CN(CC(=O)c4ccc(O)cn4)C[C@@H]3C2)c1F | 435 nM | 100 to 1000 nM
25 | O=C(CN1C[C@H]2C[C@H](Oc3cncc(Cl)c3)C[C@H]2C1)c1ccc(O)cc1 | 253 nM | 100 to 1000 nM
26 | O=C(CN1C[C@H]2CC(S(=O)(=O)c3ccccc3)C[C@H]2C1)c1ccc(O)cc1 (stereo partly shown) | 3500 nM | 1000 to 10000 nM
27 | Oc1ccc(C(O)CN2C[C@H]3C[C@H](Oc4cccc5cnccc45)C[C@H]3C2)cc1 (stereo partly shown) | 191 nM | 100 to 1000 nM
28 | COc1cccc(F)c1O[C@H]1C[C@@H]2CN(CC(=O)c3ccc(O)cc3)C[C@@H]2C1 | 466 nM | 100 to 1000 nM

The next compounds have a lower IC50 [1] than those just listed; values first:

Row | IC50 [1] | IC50 [2] | SMILES
29 | 102 nM | 100 to 1000 nM | COc1ccc(O[C@H]2C[C@@H]3CN(CC(=O)c4ccc(O)c(F)c4)C[C@@H]3C2)cc1
30 | 50.8 nM | < 100 nM | COc1cccc(O[C@H]2C[C@@H]3CN(CC(O)c4ccc(O)cn4)C[C@@H]3C2)c1F (stereo partly shown)
31 | 53.2 nM | < 100 nM | O=C(CN1C[C@H]2C[C@@H](Oc3ccc(F)cc3)C[C@H]2C1)c1ccc(O)c(F)c1
32 | 38 nM | < 100 nM | Oc1ccc(C(O)CN2C[C@H]3C[C@H](Oc4ccccc4Cl)C[C@H]3C2)nc1 (stereo partly shown)
33 | 90 nM | < 100 nM | Cc1ccc(O[C@H]2C[C@@H]3CN(CC(O)c4ccc(O)c(F)c4)C[C@@H]3C2)cn1 (stereo partly shown)
34 | 47 nM | < 100 nM | O=C(CN1C[C@H]2C[C@H](Oc3ccc(F)cc3)C[C@H]2C1)c1ccc(O)cc1
35 | 20 nM | < 100 nM | Oc1ccc([C@@H](O)CN2C[C@H]3C[C@H](Oc4cccnc4F)C[C@H]3C2)nc1
36 | 61.6 nM | < 100 nM | O=C(CN1C[C@H]2C[C@H](Oc3ccc(F)c(F)c3)C[C@H]2C1)c1ccc(O)cc1
37 | 58.3 nM | < 100 nM | Oc1ccc(C(O)CN2C[C@H]3C[C@H](Oc4cc(F)cc(F)c4)C[C@H]3C2)nc1 (stereo partly shown)
38 | 177 nM | 100 to 1000 nM | Cc1cccc(O[C@H]2C[C@@H]3CN(CC(=O)c4ccc(O)cc4)C[C@@H]3C2)c1F
39 | 9.6 nM | < 100 nM | Oc1ccc(C(O)CN2C[C@H]3C[C@H](Oc4c(F)cccc4F)C[C@H]3C2)nc1 (stereo partly shown)
40 | 20.6 nM | < 100 nM | Oc1ccc(C(O)CN2C[C@H]3C[C@H](Sc4ccccc4F)C[C@H]3C2)nc1 (stereo partly shown)
41 | 18 nM | < 100 nM | N#Cc1ccc(O[C@H]2C[C@@H]3CN(CC(O)c4ccc(O)cn4)C[C@@H]3C2)cc1 (stereo partly shown)
42 | 53.4 nM | < 100 nM | O=C(CN1C[C@H]2C[C@@H](Oc3ccc(F)cc3)C[C@H]2C1)c1ccc(O)cc1
43 | 9.36 nM | < 100 nM | Oc1ccc(C(O)CN2C[C@H]3C[C@H](Sc4ccccc4)C[C@H]3C2)cc1 (stereo partly shown)
44 | 139 nM | 100 to 1000 nM | COC(CN1C[C@H]2C[C@H](Oc3ccc(F)cc3)C[C@H]2C1)c1ccc(O)cc1 (stereo partly shown)
45 | 55.2 nM | < 100 nM | O=C(CN1C[C@H]2C[C@H](Oc3ccc(F)nc3)C[C@H]2C1)c1ccc(O)cc1
46 | 81.5 nM | < 100 nM | O=C(CN1C[C@H]2C[C@H](Oc3cccnc3)C[C@H]2C1)c1ccc(O)cc1
47 | 83.9 nM | < 100 nM | COc1ccc(O[C@@H]2C[C@@H]3CN(CC(O)c4ccc(O)c(F)c4)C[C@@H]3C2)cc1 (stereo partly shown)
48 | 37.6 nM | < 100 nM | Oc1ccc(C(O)CN2C[C@H]3C[C@@H](Oc4ccc(F)c(F)c4)C[C@H]3C2)nc1 (stereo partly shown)
49 | 46.4 nM | < 100 nM | COc1ccc(O[C@H]2C[C@@H]3CN(CC(=O)c4ccc(O)cc4)C[C@@H]3C2)cc1
50 | 41.5 nM | < 100 nM | COc1ccc(O[C@H]2C[C@@H]3CN(CC(O)c4ccc(O)c(F)c4)C[C@@H]3C2)cc1 (stereo partly shown)
51 | 41.1 nM | < 100 nM | O=C(CN1C[C@H]2C[C@H](Oc3ccc(F)cc3F)C[C@H]2C1)c1ccc(O)cc1
52 | 84.5 nM | < 100 nM | Cc1ccc(O[C@H]2C[C@@H]3CN(CC(=O)c4ccc(O)cc4)C[C@@H]3C2)cn1
53 | 65.8 nM | < 100 nM | COc1ccc(O[C@H]2C[C@@H]3CN(CC(O)c4ccc(O)cn4)C[C@@H]3C2)cc1 (stereo partly shown)
54 | 163 nM | 100 to 1000 nM | COc1cccc(F)c1O[C@H]1C[C@@H]2CN(CC(O)c3ccc(O)cn3)C[C@@H]2C1 (stereo partly shown)
55 | 5.72 nM | < 100 nM | Oc1ccc(C(O)CN2C[C@H]3C[C@H](Oc4ccccc4)C[C@H]3C2)nc1 (stereo partly shown)
56 | 23.4 nM | < 100 nM | Cc1cccc(O[C@H]2C[C@@H]3CN(CC(O)c4ccc(O)cn4)C[C@@H]3C2)c1F (stereo partly shown)
